Holding throughout (assay type): cell-based, human
In one experiment the test system is HcerEpic cells. The experiment is described as follows: CCK8 antiproliferative activity assay on HcerEpic cells. Particulars: 48 h, read-out: IC50, antiproliferation activity on HcerEpic cells (PC phenolics). The method, then:
(§1) The SiHa cell line was obtained from American Type Culture Collection (ATCC, Manassas, Virginia, VA, USA); HcerEpic cell was obtained from ScienCell (San Diego, Los Angeles, LA, USA). The cells were maintained in medium RP1640 containing 10% FBS, high glucose DMEM cultured with 100 U/ml of penicillin, and 100 U/ml of streptomycin, in a humidified CO2 (5%) incubator at 37°C. All reagents for cell cultures were purchased from Invitrogen (Carlsbad, California, CA, USA).
(§2) SiHa and HcerEpic cells were cultured in 96-well plates at approximately 7.5 × 10^3 cells per well and incubated for 12 h. Then, cells were treated with different concentrations of PC extracts (5, 10, 25, 50, and 100 μg/mL) or seven PC PHE (10, 20, 40, 60, and 80 μM). After incubation of 48 h, then 10 μL CCK8 reagent added per hole, placed in the incubator 2 h, incubation, enzyme standard instrument determination at 450 nm absorbance (OD value).
(§3) Cell vitality∗(%) = [A (dosing) − A (blank)]/[A dosing (O) − A (blank)] × 100%A (dosing): OD values of Wells with cell, CCK8 solution, and drug solution.
(§4) A (blank): OD values of Wells with medium, CCK8 solution, and no cells.
(§5) A (0 dosing): OD values of Wells with cell and CCK8 solution but no drug solution.

In the next experiment the test system is SiHa cells. The experiment is described as follows: CCK8 antiproliferative activity assay on SiHa cells. Particulars: 48 h, read-out: IC50, antiproliferation activity on SiHa cells (PC phenolics). As for the experimental part: as §1, §2, §3, §4, §5
Background: Formazan colour is commonly taken as a measure of viable cells.

The subject of experiment [1] is P53, Bax, Bcl-2, caspase 3, caspase 9 in SiHa cells. Briefly: Western blot of apoptosis-related proteins in SiHa cells. The following applies: SiHa cells, 25, 50, 75 μM, 48 h, compared with control. As for the experimental part: We followed the Western blot methods of Tu et al. 2020 [24]. […] The culture was terminated after 48 h. Then, cells were collected and proteins were extracted with RIPA lysis buffer containing a protease inhibitor cocktail. The total protein concentrations were measured using the Bradford method, and the normalized protein samples were added to 4 sample buffer, then boiled and denatured. Equal amounts of proteins were separated by SDS-PAGE and then transferred to nitrocellulose membranes. The membranes were blocked and then probed with indicated primary antibodies, respectively, with anti-P53 (1 : 1000), anti-Bax (1 : 1000), anti-Bcl-2 (1 : 1000), anti-caspase 3 (1 : 2500), anti-caspase 9 (1 : 2500), anti-cleaved-caspase 3 (1 : 1000), and anti-cleaved-caspase 9 (1 : 1000), at 4°C overnight. Antibodies were purchased from Abcam (Santa Cruz, California, CA, USA); others were from Cell Signaling Technology (Cell Signaling, Danvers, Massachusetts, MA, USA). All antibodies were diluted with 5% BSA in TBST buffer. The blots were rinsed and then incubated with secondary antibodies (anti-mouse antibody or anti-rabbit antibody, 1 : 5000, Cell Signaling Technology). Reactive bands were visualized using ECL (Thermo Fisher Scientific; Waltham, MA, USA) and then calibrated by ChemiDoc Imaging System (Bio-Rad; Hercules, California, CA, USA).

Where two headings read alike, the source gives them in different places. Some results are limits rather than exact numbers.

In the case of `O=C1CC(C(=O)O)c2c1oc(=O)c1cc(O)c(O)c(O)c21` (stereo not shown) [Brevifolin carboxylic acid], the IC50 in the experiment with HcerEpic cells and in the experiment on SiHa cells was greater than 100 µM in each case.

As for `O=C(O)C[C@@H]1C(=O)O[C@H]2[C@@H]3OC(=O)c4cc(O)c(O)c(O)c4-c4c(cc(O)c(O)c4O)C(=O)OC[C@H]2O[C@@H](OC(=O)c2cc(O)c(O)c(O)c2)[C@@H]3OC(=O)c2cc(O)c(O)c3c2[C@H]1[C@H](O)C(=O)O3` [Chebulagic acid], the IC50 in the experiment with HcerEpic cells (Homo sapiens) was greater than 100 µM; in the experiment with SiHa cells (Homo sapiens, SiHa), greater than 100 µM.

`O=C(/C=C/c1ccc(O)c(O)c1)O[C@@H]1C[C@](O)(C(=O)O)C[C@@H](O)[C@H]1O` [Chlorogenic acid]: the IC50 is greater than 100 µM with HcerEpic cells (Homo sapiens) and greater than 100 µM in the experiment on SiHa cells (Homo sapiens, SiHa).

For the compound `O=C(O[C@@H]1O[C@@H]2COC(=O)c3cc(O)c(O)c(O)c3-c3c(cc(O)c(O)c3O)C(=O)O[C@H]([C@H]1O)[C@@H]2O)c1cc(O)c(O)c(O)c1` [Corilagin], the IC50 in the experiment with HcerEpic cells (Homo sapiens) was greater than 100 µM. In experiment [1], the “expression level of Bcl-2 protein” value is on record as “downregulated”, the “expression level of Caspase3 protein” value is on record as “significantly upregulated”, the “expression level of Csapase9 protein” value was “significantly upregulated” and the “expression level of P53 protein” value is on record as “significantly upregulated”. In the experiment with SiHa cells (Homo sapiens, SiHa), the IC50 came out at 28.7 µM.

Take `O=c1oc2c(O)c(O)cc3c(=O)oc4c(O)c(O)cc1c4c23` [Ellagic acid]: in the experiment on HcerEpic cells (Homo sapiens), the IC50 is greater than 100 µM. Moreover, in experiment [1], the “expression level of Bcl-2 protein” value is “downregulated”, the “expression level of Caspase3 protein” value was “significantly upregulated”, the “expression level of Csapase9 protein” value is “significantly upregulated” and the “expression level of P53 protein” value is listed as “significantly upregulated”. The IC50 with SiHa cells (Homo sapiens, SiHa) came to 21.5 µM.

Turning to `O=C(O)c1cc(O)c(O)c(O)c1` [Gallic acid], the IC50 in the experiment with HcerEpic cells (Homo sapiens) was greater than 100 µM; with SiHa cells (Homo sapiens, SiHa), greater than 100 µM.

Turning to Citrate acid, the IC50 in the experiment with HcerEpic cells and with SiHa cells was greater than 100 µM in each case.

The values are drawn from article PMC7762659, “Phenolic Compounds from Polygonum chinense Induce Growth Inhibition and Apoptosis of Cervical Cancer SiHa Cells” (BioMed Research International, 2020).
